Experimental findings from ChEMBL document CHEMBL1201862, “PubChem BioAssay data set” (2004) are described below.

The nature of test [1]: PAX8-dependent cell viability loss – plate reader, dry powder, dose response (AID 743049). Format: functional, cell-based.
Test [2] deals with Paired box protein Pax-8 (Homo sapiens, UniProt Q06710). The experiment in a line: PAX8 transcriptional activity inhibition in RMG-I – RMG-I cells, luciferase, cherry-pick, dose response (AID 687027).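 Further: luciferase reporter driven by Pax8 target thyroperoxidase promoter measured by SteadyGlo luminescence.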 Format: functional, cell-based.
Test [3] is described as follows: OV-90 cell viability loss – plate reader, dry powder, SA8, PAX8 inhibitor project, dose response (AID 743149). Format: functional, cell-based.
Test [4] in a line: viability loss in mouse NIH3T3 cells – cell-based, CellTiter-Glo luminescence, dry powder, cytotoxicity control for PglD inhibitor project, dose response (AID 652044). Format: functional. In general terms: Cellular ATP, detected with luciferase, serves as a proxy for viable cell number.
Test [5] in a line: general cell-killing toxicity readout – plate reader, dry powder samples, cytotoxicity control for PAX8 inhibitor project, dose response (AID 743021). The test is classed as functional, cell-based.
Test [6] can be described thus: A2780 cell killing – plate reader, dry powder samples, cytotoxicity control, dose response (AID 743046). The test is classed as functional, cell-based.
Test [7] is described as follows: OVCAR-3 cell viability loss – plate reader, dry powder samples, PAX8 inhibitor project, dose response (AID 743044). The test is classed as functional, cell-based.
Test [8] can be described thus: IGROV1 cell killing – plate reader, dry powder samples, PAX8 inhibitor project, dose response (AID 743043). Format: functional, cell-based. The following applies: IGROV-1.
The nature of test [9]: A549 cell cytotoxicity, dose response, cytotoxicity control, plate reader, cherry-pick, antagonist series (AID 743412). Format: functional, cell-based.
Test [10] is described as follows: inhibition of bursicon-driven LGR2 cAMP signaling – cell-based, HEK293, CRE-luciferase reporter, cherry pick, dose response (AID 743342). The test is classed as functional.
A short description of test [11]: inhibitors of non-replicating M. tuberculosis, dose response, luciferase, dry powder (AID 651619). The test is classed as functional. The following applies: Mycobacterium tuberculosis.
Test [12] can be described thus: inhibitors of non-replicating M. tuberculosis, dose response, luciferase, dry powder (AID 651620). The following applies: Mycobacterium tuberculosis. Format: functional.
A short description of test [13]: growth inhibition of replicating M. tuberculosis, dose response, counter-screen, dry powder, IC90 (AID 651617). The test is classed as functional. The following applies: Mycobacterium tuberculosis. A general note: A counterscreen serves to expose hits that act by an unwanted route or on another target.
In test [14] the target is Protein Wnt-3a (Mus musculus, UniProt P27467). The experiment in a line: SAR analysis of small molecule antagonists of Gli-SUFU in a Wnt3a luminescent reporter assay. Format: functional. A general note: A reporter such as luciferase makes a cellular process visible.
Test [15] addresses Delta-type opioid receptor (Homo sapiens, UniProt P41143). The experiment in a line: Late-stage results from the probe development effort to identify antagonists of OPRK1: fluorescence-based cell-based dose response OPRD1 counterscreen, Set 2. The test is classed as functional.
The target of test [16] is Mu-type opioid receptor (Homo sapiens, UniProt P35372). Nature of the test: Late-stage results from the probe development effort to identify antagonists of OPRK1: luminescence-based cell-based dose response OPRM1 counterscreen, Set 2. The test is classed as functional.
Test [17] addresses Kappa-type opioid receptor (Homo sapiens, UniProt P41145). The experiment in a line: Late-stage fluorescence-based cell-based dose response assay for antagonists of kappa opioid receptor 1 (OPRK1). Format: functional.
Test [18] addresses Sphingosine 1-phosphate receptor 1 (Homo sapiens, UniProt P21453). Nature of the test: Late-stage counterscreen for antagonists of kappa opioid receptor 1 (OPRK1): fluorescence-based cell-based dose response assay to identify antagonists of Sphingosine 1-Phosphate Receptor 1 (S1P1). The test is classed as functional.
Test [19] addresses Potassium channel subfamily K member 3 (Homo sapiens, UniProt O14649). The experiment in a line: inhibition of human KCNK3 channel flux – CHO cells, FluxOR thallium flux, SAR follow-up (AID 652212). Format: functional.
In test [20] the target is Potassium channel subfamily K member 9 (Homo sapiens, UniProt Q9NPC2). The experiment in a line: KCNK9 flux blockade, concentration-response – cell-based, FluxOR thallium flux, selectivity assay for TASK1 inhibitor project, SAR follow-up (AID 652211).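 Further: potency is for inhibitors of the channel.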 Format: functional.
In test [21] the target is Albumin (Bos taurus, UniProt P02769). The experiment in a line: Counterscreen for inhibitors of T-cell receptor (TCR)-CD3 interaction: Fluorescence-based biochemical high throughput dose response assay to identify inhibitors of T-cell receptor (TCR)-CD3 interaction using a TAMRA-labeled BSA probe. The test is classed as functional.

Molecules are shown by their SMILES. Active and inactive are the calls of the source.

Paired box protein Pax-8, sequence (Q06710 whole entry): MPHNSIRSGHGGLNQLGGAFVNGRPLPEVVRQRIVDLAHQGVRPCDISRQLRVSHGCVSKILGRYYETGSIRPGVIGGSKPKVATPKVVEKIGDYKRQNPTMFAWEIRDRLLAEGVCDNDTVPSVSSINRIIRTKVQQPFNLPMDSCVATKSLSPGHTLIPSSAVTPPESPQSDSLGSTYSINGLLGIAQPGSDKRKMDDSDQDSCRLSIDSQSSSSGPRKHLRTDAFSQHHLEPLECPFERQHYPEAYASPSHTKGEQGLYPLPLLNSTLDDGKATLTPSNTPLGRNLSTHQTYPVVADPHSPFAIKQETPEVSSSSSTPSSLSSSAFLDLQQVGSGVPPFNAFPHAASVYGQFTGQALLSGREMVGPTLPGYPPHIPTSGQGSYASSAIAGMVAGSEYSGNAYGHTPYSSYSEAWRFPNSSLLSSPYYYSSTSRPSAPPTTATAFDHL
Mu-type opioid receptor, sequence (P35372 whole entry): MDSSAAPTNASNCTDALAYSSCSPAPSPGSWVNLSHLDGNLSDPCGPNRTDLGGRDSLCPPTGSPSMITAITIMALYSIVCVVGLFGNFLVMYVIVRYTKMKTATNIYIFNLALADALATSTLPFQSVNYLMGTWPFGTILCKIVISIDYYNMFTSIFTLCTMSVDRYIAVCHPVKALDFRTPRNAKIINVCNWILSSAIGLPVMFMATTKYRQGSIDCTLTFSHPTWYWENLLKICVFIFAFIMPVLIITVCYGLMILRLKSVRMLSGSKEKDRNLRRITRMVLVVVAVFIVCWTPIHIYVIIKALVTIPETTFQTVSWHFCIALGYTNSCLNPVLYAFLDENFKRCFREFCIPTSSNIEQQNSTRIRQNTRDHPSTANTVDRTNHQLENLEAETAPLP
Albumin, sequence (P02769 whole entry): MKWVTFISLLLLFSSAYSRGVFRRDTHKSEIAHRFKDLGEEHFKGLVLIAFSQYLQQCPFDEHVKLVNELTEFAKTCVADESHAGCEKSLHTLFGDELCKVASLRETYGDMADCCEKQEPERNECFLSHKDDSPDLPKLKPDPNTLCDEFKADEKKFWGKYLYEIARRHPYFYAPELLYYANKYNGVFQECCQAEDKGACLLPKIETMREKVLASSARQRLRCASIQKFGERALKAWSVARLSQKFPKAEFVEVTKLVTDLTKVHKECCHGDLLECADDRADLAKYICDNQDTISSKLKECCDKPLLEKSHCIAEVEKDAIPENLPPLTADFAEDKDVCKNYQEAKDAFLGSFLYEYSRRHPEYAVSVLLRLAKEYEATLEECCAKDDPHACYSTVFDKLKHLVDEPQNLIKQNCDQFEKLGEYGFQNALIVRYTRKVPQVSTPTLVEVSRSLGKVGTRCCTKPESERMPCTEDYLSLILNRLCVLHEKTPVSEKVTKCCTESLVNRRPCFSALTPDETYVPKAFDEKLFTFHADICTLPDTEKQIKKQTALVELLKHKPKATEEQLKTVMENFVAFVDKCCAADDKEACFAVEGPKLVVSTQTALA
Kappa-type opioid receptor, sequence (P41145 whole entry): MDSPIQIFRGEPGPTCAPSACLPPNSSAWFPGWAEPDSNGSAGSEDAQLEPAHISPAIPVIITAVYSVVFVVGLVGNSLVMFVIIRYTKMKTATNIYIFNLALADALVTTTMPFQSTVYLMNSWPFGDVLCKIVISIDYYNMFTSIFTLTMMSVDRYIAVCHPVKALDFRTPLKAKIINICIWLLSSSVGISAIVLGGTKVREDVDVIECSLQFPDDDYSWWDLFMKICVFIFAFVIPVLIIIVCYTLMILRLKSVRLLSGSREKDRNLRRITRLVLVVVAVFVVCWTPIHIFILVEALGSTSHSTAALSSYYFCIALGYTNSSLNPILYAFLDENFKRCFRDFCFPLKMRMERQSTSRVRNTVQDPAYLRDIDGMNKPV
Protein Wnt-3a, sequence (P27467 whole entry): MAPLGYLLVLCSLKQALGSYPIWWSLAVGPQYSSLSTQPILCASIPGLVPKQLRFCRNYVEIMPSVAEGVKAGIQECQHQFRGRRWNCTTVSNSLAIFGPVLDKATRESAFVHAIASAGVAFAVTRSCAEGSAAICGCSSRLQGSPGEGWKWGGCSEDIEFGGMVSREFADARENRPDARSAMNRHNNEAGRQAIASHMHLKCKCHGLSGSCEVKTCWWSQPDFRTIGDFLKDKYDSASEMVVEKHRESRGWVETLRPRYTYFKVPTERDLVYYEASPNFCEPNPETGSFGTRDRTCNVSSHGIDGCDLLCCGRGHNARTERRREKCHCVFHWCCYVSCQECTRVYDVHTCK
Potassium channel subfamily K member 9, sequence (Q9NPC2 whole entry): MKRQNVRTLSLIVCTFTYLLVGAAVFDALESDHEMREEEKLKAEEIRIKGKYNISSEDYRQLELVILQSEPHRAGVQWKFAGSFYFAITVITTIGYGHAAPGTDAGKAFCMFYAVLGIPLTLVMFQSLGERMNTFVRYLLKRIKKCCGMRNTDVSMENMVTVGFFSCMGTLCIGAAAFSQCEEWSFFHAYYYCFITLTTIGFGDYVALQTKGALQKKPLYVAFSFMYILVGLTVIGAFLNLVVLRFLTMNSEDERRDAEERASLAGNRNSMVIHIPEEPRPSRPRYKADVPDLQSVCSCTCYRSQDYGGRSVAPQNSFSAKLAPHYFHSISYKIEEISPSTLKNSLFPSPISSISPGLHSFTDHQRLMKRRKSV
Sphingosine 1-phosphate receptor 1, sequence (P21453 whole entry): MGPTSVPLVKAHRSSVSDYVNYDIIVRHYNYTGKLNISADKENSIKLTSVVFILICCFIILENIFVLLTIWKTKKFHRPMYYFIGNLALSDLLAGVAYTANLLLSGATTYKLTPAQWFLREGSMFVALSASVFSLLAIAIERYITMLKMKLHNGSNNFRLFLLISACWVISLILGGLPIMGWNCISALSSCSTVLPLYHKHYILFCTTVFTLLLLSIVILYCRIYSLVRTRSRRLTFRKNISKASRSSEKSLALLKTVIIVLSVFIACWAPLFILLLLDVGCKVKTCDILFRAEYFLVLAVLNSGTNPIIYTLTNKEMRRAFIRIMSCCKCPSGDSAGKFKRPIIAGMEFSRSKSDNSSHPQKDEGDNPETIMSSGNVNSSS
Delta-type opioid receptor, sequence (P41143 whole entry): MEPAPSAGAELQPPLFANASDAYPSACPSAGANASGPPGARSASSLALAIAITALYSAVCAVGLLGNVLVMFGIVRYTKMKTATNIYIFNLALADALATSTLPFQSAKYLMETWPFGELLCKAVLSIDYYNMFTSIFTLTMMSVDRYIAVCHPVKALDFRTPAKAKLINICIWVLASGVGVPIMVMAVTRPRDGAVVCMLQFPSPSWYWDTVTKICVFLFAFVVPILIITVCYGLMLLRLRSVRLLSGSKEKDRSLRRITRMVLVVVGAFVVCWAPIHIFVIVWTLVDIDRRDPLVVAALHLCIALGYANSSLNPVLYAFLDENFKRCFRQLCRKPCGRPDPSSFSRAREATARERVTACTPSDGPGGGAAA
Potassium channel subfamily K member 3, sequence (O14649 whole entry): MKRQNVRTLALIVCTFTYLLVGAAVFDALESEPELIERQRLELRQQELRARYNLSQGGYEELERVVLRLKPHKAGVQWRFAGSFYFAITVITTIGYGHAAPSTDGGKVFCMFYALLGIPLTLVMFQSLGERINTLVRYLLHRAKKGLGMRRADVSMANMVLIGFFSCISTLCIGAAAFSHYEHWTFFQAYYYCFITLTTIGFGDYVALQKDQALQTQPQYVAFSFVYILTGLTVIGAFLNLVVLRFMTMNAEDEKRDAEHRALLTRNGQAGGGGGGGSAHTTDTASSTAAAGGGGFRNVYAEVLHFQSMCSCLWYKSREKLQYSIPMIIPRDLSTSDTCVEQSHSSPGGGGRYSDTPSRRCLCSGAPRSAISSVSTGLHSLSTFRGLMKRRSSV

The AC50 is the concentration giving half of the maximal activity seen. For `C[C@H]1CN([C@@H](C)CO)C(=O)CCCn2nncc2CO[C@@H]1CN(C)C(=O)Nc1ccc(-c2cccs2)cc1`, the AC50 in test [1] is 7.43 µM (active); in [2], 0.48 µM (active); in test [3] it was > 70 µM (inactive).
For the compound `COc1ccc(C#Cc2cnc3c(c2)C(=O)N([C@@H](C)CO)C[C@H](C)[C@H](CN(C)CC2CCCC2)O3)cc1`, the AC50 in test [4] is 25.2 µM (active).
In the case of `COc1ccc(NC(=O)N2CC(=O)N3[C@H](C2)[C@H](c2ccc(/C=C/c4ccccc4)cc2)[C@@H]3CO)cc1`, the AC50 in test [2] was 5.72 µM (active); in test [5], 23.2 µM (active); in test [6], 26 µM (active); in [7] it was 12.4 µM (active); in test [8], 30.6 µM (active).
`C[C@H](CO)N1C[C@H](C)[C@H](CN(C)C(=O)Nc2ccccc2)OCCCC[C@H](C)Oc2ccc(NC(=O)Nc3ccccc3)cc2C1=O`: the AC50 in test [9] was > 52 µM (inactive); in [10] it was 16.9 µM (active).
The IC90 is the point of the concentration-response curve where the effect stands at 90%. In the case of `Fc1cccc(-c2nnc(SCc3ccccn3)o2)c1`, the IC90 in test [11] was 4 µM (active); in [12], 4 µM (active); in [13] it was 125 µM (active).
By IC50 is commonly meant the point on the concentration scale where inhibition reaches its midpoint. Take `Cc1nc(NC(=O)c2ccccc2)cc(N(C)C)n1`: the IC50 in test [14] was > 21.8 µM (inactive).
Consider `O=C(c1cnn(-c2ccc(Cl)cc2)c1C(F)(F)F)N1CCN(c2ncnc3ccsc23)CC1`, for which the IC50 was > 50 µM (inactive) in test [15], > 50 µM (inactive) in test [16], 1.05 µM (active) in test [17] and > 50 µM (inactive) in test [18].
As for `COc1ccccc1NC(=O)c1cccc(NC(=O)c2ccccc2)c1`, the figures for the IC50 in test [19] and in test [20] were 0.064 µM (active) and 1.41 µM (active), respectively.
For the compound `O=c1c2c(-c3ccc(Cl)cc3)csc2ncn1/N=C/c1cccc([N+](=O)[O-])c1O`, in test [21], the IC50 is > 94.1 µM (inactive).
